Consider 20 compounds from patent publication US6897214B2, “Quinazoline derivatives” (Zeneca Limited, priority 1996, dated 2005).

One data set relates to transplanted human mammary carcinoma.
Experiment: not given
Particulars: carcinoma which does not express EGF receptor tyrosine kinase; cited from earlier work.
For the compound `O=CN/C=C/c1cc(O)ccc1O` [erbstatin], the “growth of another carcinoma” value is listed as “without effect on the growth”.

The data set is the same for the next values; noted with them: carcinoma which expresses EGF receptor tyrosine kinase; athymic nude mice; cited from earlier work.
As for `O=CN/C=C/c1cc(O)ccc1O` [erbstatin], the “growth of transplanted human mammary carcinoma” value was “specifically attenuates the growth”.

A further data set concerns xenografts of the human vulval epidermoid carcinoma cell line A-431. Put plainly: Test (d): in vivo inhibition of growth of A-431 xenografts in athymic nude mice. To be noted: dosage of 50 mg/kg/day. The method, then:
(d) An in-vivo assay in a group of athymic nude mice (strain ONU:Alpk) which determines the ability of a test compound (usually administered orally as a ball-milled suspension in 0.5% polysorbate) to inhibit the growth of xenografts of the human vulval epidermoid carcinoma cell line A-431.
A-431 cells were maintained in culture in DMEM supplemented with 5% FCS and 2 mM glutamine. Freshly cultured cells were harvested by trypsinization and injected subcutaneously (10 million cells/0.1 ml/mouse) into both flanks of a number of donor nude mice. When sufficient tumour material was available (after approximately 9 to 14 days), fragments of tumour tissue were transplanted into the flanks of recipient nude mice (test day 0). Generally, on the seventh day after transplantation (test day 7) groups of 7 to 10 mice with similar-sized tumours were selected and dosing of the test compound was commenced. Once-daily dosing of test compound was continued for a total of 13 days (test days 7 to 19 inclusive). In some studies the dosing of the test compound was continued beyond test day 19, for example to test day 26. In each case, on the following day the animals were killed and final tumour volume was calculated from measurements of the length and width of the tumours. Results were calculated as a percentage inhibition of tumour volume relative to untreated controls.
Regarding `Fc1ccc(Nc2ncnc3ccc(-c4ccc(CCN5CCOCC5)s4)cc23)cc1Cl` [Example 8, 4-(3-chloro-4-fluoroanilino)-6-[5-(2-morpholinoethyl)thien-2-yl]quinazoline], the “inhibition in Test (d) (tumour volume relative to untreated controls)” value was 64%.

The next data set has as its system human naso-pharyngeal cancer cell line KB. Description: Test (b): in vitro inhibition of EGF-stimulated growth of KB cells. To be noted: EGF (10 ng/ml) stimulated growth, MTT. Format: cell-based. The procedure:
(b) An in vitro assay which determines the ability of a test compound to inhibit the EGF-stimulated growth of the human naso-pharyngeal cancer cell line KB.
KB cells were seeded into wells at a density of 1×10^4-1.5×10^4 cells per well and grown for 24 hours in DMEM supplemented with 5% FCS (charcoal-stripped). Cell growth was determined after. incubation for 3 days by the extent of metabolism of MTT tetrazolium dye to furnish a bluish colour. Cell growth was then determined in the presence of EGF (10 ng/ml) or in the presence of EGF (10 ng/ml) and a test compound at a range of concentrations. An IC50 value could then be calculated.
With `Fc1ccc(Nc2ncnc3ccc(-c4ccc(CCN5CCOCC5)s4)cc23)cc1Cl` [Example 8, 4-(3-chloro-4-fluoroanilino)-6-[5-(2-morpholinoethyl)thien-2-yl]quinazoline], the IC50 (in general, the concentration that inhibits the measured activity by half) stood at 190 nM.

Test system in another data set: not given
Experiment: not given
Conditions: not given
For the compound `Cl.O=C(Nc1ccc2ncnc(Nc3ccc(F)c(Cl)c3)c2c1)c1cccs1`, the melting point (usually the temperature of the solid-liquid transition) is above 250 °C.

For `Cc1cccc(Nc2ncnc3ccc(NCc4ccsc4)cc23)c1` [Example 16, 4-(3-methylanilino)-6-(3-thienylmethylamino)quinazoline], the melting point was 207 to 208 °C. Still for that read-out and setting: next, `Cc1cccc(Nc2ncnc3ccc(CSc4ncc[nH]4)cc23)c1` [Example 36, 6-(2-imidazolylthiomethyl)-4-(3-methylanilino)-quinazoline]: 217 to 219 °C; `Cc1cccc(Nc2ncnc3ccc(-c4ccccc4)cc23)c1` [Example 2, 4-(3-methylanilino)-6-phenylquinazoline]: 207 to 209 °C. Same read-out and setting: next, `Cc1cccc(Nc2ncnc3ccc(Nc4ncc[nH]4)cc23)c1` [Example 14, 6-(2-imidazolylamino)-4-(3-methylanilino)quinazoline]: 256 to 258 °C; `Fc1ccc(Nc2ncnc3ccc(-c4ccco4)cc23)cc1Cl` [Example 5, 4(3-chloro-4-fluoroanilino)-6-(2-furyl)quinazoline]: 232 to 234 °C. Same read-out and setting: next, `Fc1ccc(Nc2ncnc3ccc(NCc4cccs4)cc23)cc1Cl` [Example 19, 4-(3-chloro-4-fluoroanilino)-6-(2-thienylmethylamino)quinazoline]: 193 to 195 °C; `N#Cc1ccc(-c2ccc3ncnc(Nc4ccc(F)c(Cl)c4)c3c2)cc1` [Example 1, 4-(3-chloro-4-fluoroanilino)-6-(4-cyanophenyl)quinazoline]: above 250 °C. Turning to `CNc1cc2ncnc(Nc3ccc(F)c(Cl)c3)c2cc1NC(=O)c1cccnc1` [Example 24, 4-(3-chloro-4-fluoroanilino)-7-methylamino-6-(pyridine-3-carboxamido)quinazoline], the melting point was above 260 °C. Compound `Cl.O=C(Nc1ccc2ncnc(Nc3ccc(F)c(Cl)c3)c2c1)c1ccno1` showed a melting point above 250 °C. Still for that read-out and setting: next, `Cc1cccc(Nc2ncnc3ccc(NS(=O)(=O)c4cn(C)cn4)cc23)c1` [Example 15, 4-(3-methylanilino)-6-(1-methylimidazole-4-sulphonamido)quinazoline]: above 250 °C; `Cc1cccc(Nc2ncnc3ccc(CSc4nccn4C)cc23)c1` [Example 35, 4-(3-methylanilino)-6-(N-methylimidazol-2-ylthiomethyl)quinazoline]: 137 to 139 °C; `Fc1ccc(Nc2ncnc3ccc(-c4ccsc4)cc23)cc1Cl` [Example 7, 4-(3-chloro-4-fluoroanilino)-6-(3-thienyl)quinazoline]: 195 to 197 °C. The same measure, in the same setting: next, `Cc1cc(Nc2ncnc3ccc(-c4ccoc4)cc23)ccc1OCc1ccccn1` [Example 39, 6-(3-furyl)-4-[3-methyl-4-(2-pyridylmethoxy)anilino]-quinazoline]: 206 to 208 °C; `Cc1cccc(Nc2ncnc3ccc(CSc4c[nH]nn4)cc23)c1` [Example 34, 4-(3-methylanilino)-6-(1,2,3-triazol-4-ylthiomethyl)quinazoline]: 64 to 68 °C; `Cc1cc(Nc2ncnc3ccc(-c4cccs4)cc23)ccc1OCc1ccccn1` [Example 38, 4-[3-methyl-4-(2-pyridylmethoxy)anilino]-6-(2-thienyl)-quinazoline]: 205 to 206 °C.

Compound `Fc1ccc(Nc2ncnc3ccc(-c4cccs4)cc23)cc1Cl` [Example 6, 4-(3-chloro-4-fluoroanilino)-6-(2-thienyl)quinazoline] yielded a melting point of 205 to 208 °C. In turn, `Cc1cccc(Nc2ncnc3ccc(CSc4nc5ccccc5[nH]4)cc23)c1` [Example 37, 6-(2-benzimidazolylthiomethyl)-4-(3-methylanilino)quinazoline] returned a melting point of 123 to 129 °C.

The target in another data set is T1, EGF receptor tyrosine kinase (Homo sapiens, UniProt P00533).
T1 construct: Receptor tyrosine kinase was obtained in partially purified form from A-431 cells; endogenous in cells; host or cells: A-431 cells (human vulval carcinoma), solubilised membrane preparation
T1 sequence (P00533 25-1210): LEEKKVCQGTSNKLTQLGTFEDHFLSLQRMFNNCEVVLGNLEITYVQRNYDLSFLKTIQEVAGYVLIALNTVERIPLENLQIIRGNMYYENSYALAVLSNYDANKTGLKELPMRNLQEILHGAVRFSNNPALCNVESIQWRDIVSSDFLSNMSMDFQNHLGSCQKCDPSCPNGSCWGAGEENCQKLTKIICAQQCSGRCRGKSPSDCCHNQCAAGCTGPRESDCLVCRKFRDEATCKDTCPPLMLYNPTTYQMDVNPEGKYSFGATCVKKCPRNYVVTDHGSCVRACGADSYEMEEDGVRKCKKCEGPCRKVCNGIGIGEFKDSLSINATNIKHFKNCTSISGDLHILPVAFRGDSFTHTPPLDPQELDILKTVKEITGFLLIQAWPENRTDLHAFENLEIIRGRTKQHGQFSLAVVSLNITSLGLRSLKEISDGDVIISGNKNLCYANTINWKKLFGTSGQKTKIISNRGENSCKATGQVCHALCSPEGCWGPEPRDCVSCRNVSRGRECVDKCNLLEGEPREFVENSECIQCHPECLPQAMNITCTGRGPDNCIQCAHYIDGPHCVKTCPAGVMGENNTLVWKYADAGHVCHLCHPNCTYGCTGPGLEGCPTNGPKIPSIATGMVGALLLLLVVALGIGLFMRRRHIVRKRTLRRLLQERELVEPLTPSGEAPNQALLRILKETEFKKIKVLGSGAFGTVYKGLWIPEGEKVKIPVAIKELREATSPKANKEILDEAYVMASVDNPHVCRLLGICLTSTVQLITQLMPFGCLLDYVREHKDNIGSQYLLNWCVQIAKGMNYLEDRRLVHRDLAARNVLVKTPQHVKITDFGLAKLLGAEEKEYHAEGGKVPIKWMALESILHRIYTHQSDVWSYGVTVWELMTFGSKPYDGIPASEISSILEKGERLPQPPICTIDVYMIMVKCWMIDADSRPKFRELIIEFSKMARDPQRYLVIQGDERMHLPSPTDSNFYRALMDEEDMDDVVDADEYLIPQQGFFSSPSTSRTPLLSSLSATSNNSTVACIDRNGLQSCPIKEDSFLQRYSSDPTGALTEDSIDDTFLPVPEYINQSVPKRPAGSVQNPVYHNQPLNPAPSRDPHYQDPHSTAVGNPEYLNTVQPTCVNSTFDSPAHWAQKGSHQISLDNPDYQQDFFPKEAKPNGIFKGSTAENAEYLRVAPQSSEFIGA
Put plainly: Test (a): in vitro inhibition of the enzyme EGF receptor tyrosine kinase. Format: biochemical. Particulars: enzyme partially purified from A-431 cells. The method, then:
(a) An in vitro assay which determines the ability of a test compound to inhibit the enzyme EGF receptor tyrosine kinase. Receptor tyrosine kinase was obtained in partially purified form from A-431 cells (derived from human vulval carcinoma) by the procedures described below which are related to those described by Carpenter et al, J. Biol. Chem., 1979, 254, 4884, Cohen et al., J. Biol. Chem., 1982, 257, 1523 and by Braun et al., J. Biol Chem., 1984, 259, 2051.
A-431 cells were grown to confluence using Dulbecco's modified Eagle's medium DMEM) containing 5% fetal calf serum (FCS). The obtained cells were homogenised in a hypotonic borate/EDTA buffer at pH 10.1. The homogenate was centrifuged at 400 g for 10 minutes at 0-4° C. The supernatant was centrifuged at 25,000 g for 30 minutes at 0-4° C. […]
The test compound/EGF mixture solution (5 μl) was added to the test enzyme solution (10 μl) and the mixture was incubated at 0-4° C. for 30 minutes. […] Radioactivity present in the filter paper was measured using a liquid scintillation counter (Sequence A). […]
Receptor tyrosine kinase inhibition was calculated as follows: [formula]
The extent of inhibition was then determined at a range of concentrations of test compound to give an IC50 value.
Compound `Fc1ccc(Nc2ncnc3ccc(-c4ccc(CCN5CCOCC5)s4)cc23)cc1Cl` [Example 8, 4-(3-chloro-4-fluoroanilino)-6-[5-(2-morpholinoethyl)thien-2-yl]quinazoline] came in with an IC50 of 40 nM. In other words, the double-digit nanomolar range.
